US20240190849A1, “AMINOPYRIMIDINE COMPOUNDS AND METHODS OF THEIR USE” (TYRA BIOSCIENCES, INC., priority 2021, published 2024)

Experiments:
Conditions in all cases: FGFR binding data
FGFR1 = molecular target: T1, FGFR1 (Homo sapiens, UniProt P11362); assay: Kinase binding assay (kinase-tagged T7 phage, affinity beads, qPCR readout), FGFR1
T1 construct: made in house; host or cells: E. coli derived from BL21, infected with T7 phage
In short: (§1)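 Dissociation constants were measured by bead-capture competition at 0.9% DMSO, room temperature, 1 hour. qPCR of eluted kinase supplied the signal.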

FGFR2 = molecular target: T2, FGFR2 (Homo sapiens, UniProt P21802); assay: Kinase binding assay (kinase-tagged T7 phage, affinity beads, qPCR readout), FGFR2
T2 construct: made in house; host or cells: E. coli derived from BL21, infected with T7 phage
T2 sequence (P21802 22-821): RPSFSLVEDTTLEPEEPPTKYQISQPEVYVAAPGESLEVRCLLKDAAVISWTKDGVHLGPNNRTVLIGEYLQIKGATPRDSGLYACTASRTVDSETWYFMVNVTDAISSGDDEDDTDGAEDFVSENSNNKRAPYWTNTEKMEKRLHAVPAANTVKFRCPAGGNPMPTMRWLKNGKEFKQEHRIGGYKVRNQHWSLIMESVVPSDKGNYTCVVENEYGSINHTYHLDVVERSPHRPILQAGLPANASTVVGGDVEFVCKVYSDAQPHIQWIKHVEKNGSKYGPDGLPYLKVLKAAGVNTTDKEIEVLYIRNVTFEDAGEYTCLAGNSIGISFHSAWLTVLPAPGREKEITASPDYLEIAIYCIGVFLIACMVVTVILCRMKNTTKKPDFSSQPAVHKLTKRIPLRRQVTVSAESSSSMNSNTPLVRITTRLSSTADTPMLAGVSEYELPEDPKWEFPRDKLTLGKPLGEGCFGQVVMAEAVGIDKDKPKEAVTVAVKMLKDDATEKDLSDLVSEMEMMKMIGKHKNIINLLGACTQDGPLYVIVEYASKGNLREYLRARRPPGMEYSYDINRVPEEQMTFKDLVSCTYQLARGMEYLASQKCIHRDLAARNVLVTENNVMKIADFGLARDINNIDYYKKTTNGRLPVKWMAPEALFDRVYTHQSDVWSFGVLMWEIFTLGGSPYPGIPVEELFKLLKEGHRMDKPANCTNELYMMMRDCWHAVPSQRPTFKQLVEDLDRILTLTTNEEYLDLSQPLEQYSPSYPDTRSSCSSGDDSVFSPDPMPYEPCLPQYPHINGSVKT
In short: as §1

FGFR3 = molecular target: T3, FGFR3 (Homo sapiens, UniProt P22607); assay: Kinase binding assay (kinase-tagged T7 phage, affinity beads, qPCR readout), FGFR3
T3 construct: made in house; host or cells: E. coli derived from BL21, infected with T7 phage
T3 sequence (P22607 23-806): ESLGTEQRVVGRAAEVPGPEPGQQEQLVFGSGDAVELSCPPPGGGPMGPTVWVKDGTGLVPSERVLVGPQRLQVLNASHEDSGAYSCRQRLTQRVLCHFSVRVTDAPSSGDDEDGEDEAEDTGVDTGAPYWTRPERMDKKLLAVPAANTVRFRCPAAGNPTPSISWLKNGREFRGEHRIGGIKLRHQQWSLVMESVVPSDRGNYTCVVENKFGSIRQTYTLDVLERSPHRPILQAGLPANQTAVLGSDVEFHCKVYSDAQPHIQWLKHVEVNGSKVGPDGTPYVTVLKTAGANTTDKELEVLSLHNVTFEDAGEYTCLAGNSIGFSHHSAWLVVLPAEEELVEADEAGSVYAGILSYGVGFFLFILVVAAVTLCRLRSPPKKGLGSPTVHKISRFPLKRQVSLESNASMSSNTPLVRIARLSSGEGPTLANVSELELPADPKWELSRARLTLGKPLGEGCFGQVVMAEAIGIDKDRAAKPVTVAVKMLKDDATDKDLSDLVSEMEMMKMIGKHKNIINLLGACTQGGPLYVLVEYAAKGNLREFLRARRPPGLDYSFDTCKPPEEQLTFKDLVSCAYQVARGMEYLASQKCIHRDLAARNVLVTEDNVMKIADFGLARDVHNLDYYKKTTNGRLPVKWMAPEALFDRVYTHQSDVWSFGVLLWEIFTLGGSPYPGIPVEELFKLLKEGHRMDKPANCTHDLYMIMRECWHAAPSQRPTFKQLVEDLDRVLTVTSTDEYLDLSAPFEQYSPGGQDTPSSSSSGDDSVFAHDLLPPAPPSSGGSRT
In short: as §1

FGFR3 (V555M) = molecular target: T4, FGFR3 (V555M) (Homo sapiens, UniProt P22607, V555M); assay: Kinase binding assay (kinase-tagged T7 phage, affinity beads, qPCR readout), FGFR3 (V555M)
T4 construct: made in house; host or cells: E. coli derived from BL21, infected with T7 phage
T4 sequence (P22607 23-806 V555M): as the sequence (P22607 23-806) above, with V533M counted along it
In short: as §1

T1 sequence (P11362 22-822): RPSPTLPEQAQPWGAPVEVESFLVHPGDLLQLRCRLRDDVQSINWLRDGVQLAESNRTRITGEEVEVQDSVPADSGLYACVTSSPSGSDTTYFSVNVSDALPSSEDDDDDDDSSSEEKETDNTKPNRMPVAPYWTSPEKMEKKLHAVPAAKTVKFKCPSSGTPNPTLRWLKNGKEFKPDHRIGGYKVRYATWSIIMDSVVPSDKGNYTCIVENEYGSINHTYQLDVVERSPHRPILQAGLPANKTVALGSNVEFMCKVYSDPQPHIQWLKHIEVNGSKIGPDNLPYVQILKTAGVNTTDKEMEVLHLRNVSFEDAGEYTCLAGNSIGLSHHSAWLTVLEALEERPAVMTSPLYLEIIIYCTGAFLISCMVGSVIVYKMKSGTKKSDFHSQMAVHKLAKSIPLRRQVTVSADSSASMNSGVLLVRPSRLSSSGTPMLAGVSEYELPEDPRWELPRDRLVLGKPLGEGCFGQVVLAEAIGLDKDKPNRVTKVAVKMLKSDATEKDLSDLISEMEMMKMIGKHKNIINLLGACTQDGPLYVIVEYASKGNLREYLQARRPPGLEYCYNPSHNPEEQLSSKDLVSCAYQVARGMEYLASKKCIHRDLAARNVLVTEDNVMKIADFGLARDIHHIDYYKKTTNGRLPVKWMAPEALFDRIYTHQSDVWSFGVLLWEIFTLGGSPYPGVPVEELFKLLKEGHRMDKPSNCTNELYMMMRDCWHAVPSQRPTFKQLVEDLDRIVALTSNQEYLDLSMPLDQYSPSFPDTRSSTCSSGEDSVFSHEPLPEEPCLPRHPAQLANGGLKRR

Compound	Kd (FGFR1) [nM]	Kd (FGFR2) [nM]	Kd (FGFR3) [nM]	Kd (FGFR3 (V555M)) [nM]
C=CC(=O)Nc1ccc2c(c1)c(C)cn2-c1nc(Nc2cn(C(C)(C)C#N)nc2C)ncc1F [Example 159, N-[1-[2-[[1-(1-cyano-1-methyl-ethyl)-3-methyl-pyrazol-4-yl]amino]-5-fluoro-pyrimidin-4-yl]-3-methyl-indol-5-yl]prop-2-enamide]	0.1 to 100	0.1 to 100	0.1 to 100	0.1 to 100
C=CC(=O)Nc1ccc2c(c1)c(C)cn2-c1nc(Nc2cn(C)nc2OC)ncc1C#N [Example 37, N-[1-[5-cyano-2-[(3-methoxy-1-methyl-pyrazol-4-yl)amino]pyrimidin-4-yl]-3-methyl-indol-5-yl]prop-2-enamide]	100 to 250	0.1 to 100	100 to 250	0.1 to 100
C=CC(=O)Nc1ccc2c(c1)c(C)cn2-c1nc(Nc2cnn(C[C@H](C)OC)c2)ncc1F [Example 205]	0.1 to 100	0.1 to 100	0.1 to 100	0.1 to 100
C=CC(=O)Nc1ccc2c(c1)c(C)cn2-c1cc(Nc2cnn(C)c2)ncn1 [Example 219, N-[3-methyl-1-[6-[(1-methylpyrazol-4-yl)amino]pyrimidin-4-yl]indol-5-yl]prop-2-enamide]	> 1000	250 to 1000	100 to 250	250 to 1000
C=C(F)C(=O)Nc1ccc2c(c1)c(C)cn2-c1nc(Nc2ccnn2C)ncc1C [Example 110, 2-fluoro-N-[3-methyl-1-[5-methyl-2-[(2-methylpyrazol-3-yl)amino]pyrimidin-4-yl]indol-5-yl]prop-2-enamide]	> 1000	> 1000	> 1000	250 to 1000
C=CC(=O)Nc1ccc2c(-c3nc(Nc4ccc(N5CCOCC5)cc4)ncc3C)cn(C)c2c1 [Example 52, N-[1-Methyl-3-[5-methyl-2-(4-morpholinoanilino)pyrimidin-4-yl]indol-6-yl]prop-2-enamide]	0.1 to 100	0.1 to 100	0.1 to 100	0.1 to 100
C#CC(=O)Nc1ccc2c(c1)c(C)cn2-c1nc(Nc2ccnn2C)ncc1F [Example 138, N-[1-[5-fluoro-2-[(2-methylpyrazol-3-yl)amino]pyrimidin-4-yl]-3-methyl-indol-5-yl]prop-2-ynamide]	100 to 250	0.1 to 100	0.1 to 100	0.1 to 100
C#CC(=O)Nc1ccc2c(-c3ccnc(Nc4cnn(CCO)c4)n3)cn(C)c2c1 [Example 143, N-[3-[2-[[1-(2-hydroxyethyl)pyrazol-4-yl]amino]pyrimidin-4-yl]-1-methyl-indol-6-yl]prop-2-ynamide]	0.1 to 100	0.1 to 100	0.1 to 100	0.1 to 100
C=CC(=O)Nc1ccc2c(c1)c(C)cn2-c1nc(Nc2ccc3ncnn3c2)ncc1Cl [Example 47, N-[1-[5-chloro-2-([1,2,4]triazolo[1,5-a]pyridin-6-ylamino)pyrimidin-4-yl]-3-methyl-indol-5-yl]prop-2-enamide]	100 to 250	0.1 to 100	0.1 to 100	0.1 to 100
C=CC(=O)Nc1ccc2c(-c3nc(Nc4cn(CC(F)F)nc4C)ncc3F)cn(C)c2c1 [Example 169, N-[3-[2-[[1-(2,2-difluoroethyl)-3-methyl-pyrazol-4-yl]amino]-5-fluoro-pyrimidin-4-yl]-1-methyl-indol-6-yl]prop-2-enamide]	250 to 1000	0.1 to 100	0.1 to 100	0.1 to 100
Cc1nn(C)cc1Nc1ncc(F)c(-n2cc(C)c3cc(NC(=O)/C=C/CN(C)C)cnc32)n1 [Example 179, (E)-4-(dimethylamino)-N-[1-[2-[(1,3-dimethylpyrazol-4-yl)amino]-5-fluoro-pyrimidin-4-yl]-3-methyl-pyrrolo[2,3-b]pyridin-5-yl]but-2-enamide]	250 to 1000	100 to 250	100 to 250	100 to 250
C=CC(=O)Nc1ccc2c(c1)c(C)cn2-c1ncnc(Nc2cnn(C)c2)n1 [Example 218, N-[3-methyl-1-[4-[(1-methylpyrazol-4-yl)amino]-1,3,5-triazin-2-yl]indol-5-yl]prop-2-enamide]	0.1 to 100	0.1 to 100	0.1 to 100	0.1 to 100
C=CC(=O)Nc1ccc2c(c1)cc(C)n2-c1nc(Nc2cnn(C)c2)ncc1F [Example 227, N-[1-[5-fluoro-2-[(1-methylpyrazol-4-yl)amino]pyrimidin-4-yl]-2-methyl-indol-5-yl]prop-2-enamide]	100 to 250	0.1 to 100	0.1 to 100	0.1 to 100
C=CC(=O)Nc1ccc2c(c1)c(C)cn2-c1nc(Nc2ccc(CN3CCN(C)CC3)cc2)ncc1Cl [Example 65, N-[1-[5-chloro-2-[4-[(4-methylpiperazin-1-yl)methyl]-anilino]pyrimidin-4-yl]-3-methyl-indol-5-yl]prop-2-enamide]	0.1 to 100	0.1 to 100	0.1 to 100	0.1 to 100
C=CC(=O)Nc1ccc2c(c1)c(C)cn2-c1ccnc(Nc2ccnn2C)n1 [Example 82, N-[3-methyl-1-[2-[(2-methylpyrazol-3-yl)amino]pyrimidin-4-yl]indol-5-yl]prop-2-enamide]	100 to 250	0.1 to 100	0.1 to 100	0.1 to 100
CCC(=O)Nc1ccc2c(ccn2-c2nc(Nc3ccc(N4CCN(C)CC4)cc3)ncc2Cl)c1 [Example 4, N-[1-[5-chloro-2-[4-(4-methylpiperazin-1-yl)anilino]pyrimidin-4-yl]indol-5-yl]propanamide]	0.1 to 100	250 to 1000	100 to 250	0.1 to 100
C=CC(=O)Nc1ccc2c(c1)c(C)cn2-c1nc(Nc2cnn(C[C@@H](C)OC)c2)ncc1F [Example 210, N-[1-[5-fluoro-2-[[1-[(2R)-2-methoxypropyl]pyrazol-4-yl]amino]pyrimidin-4-yl]-3-methyl-indol-5-yl]prop-2-enamide]	0.1 to 100	0.1 to 100	0.1 to 100	0.1 to 100
C=CC(=O)Nc1ccc2c(c1)c(C)cn2-c1nc(Nc2c(C)cccc2OCC)ncc1C#N [Example 33, N-[1-[5-cyano-2-(2-ethoxy-6-methyl-anilino)pyrimidin-4-yl]-3-methyl-indol-5-yl]prop-2-enamide]	> 1000	> 1000	> 1000	> 1000
Cc1cn(-c2nc(Nc3cnn(C)c3C)ncc2F)c2ncc(NC(=O)/C=C/CN(C)C)cc12 [Example 199, (E)-4-(dimethylamino)-N-[1-[2-[(1,5-dimethylpyrazol-4-yl)amino]-5-fluoro-pyrimidin-4-yl]-3-methyl-pyrrolo[2,3-b]pyridin-5-yl]but-2-enamide]	100 to 250	0.1 to 100	0.1 to 100	0.1 to 100
C=CC(=O)Nc1ccc2c(-c3ccnc(Nc4ccn(C)n4)n3)cn(C)c2c1 [Example 92, N-[1-methyl-3-[2-[(1-methylpyrazol-3-yl)amino]pyrimidin-4-yl]indol-6-yl]prop-2-enamide]	100 to 250	100 to 250	0.1 to 100	100 to 250
C=CC(=O)Nc1ccc2c(c1)c(C)cn2-c1nc(Nc2cn(CCOC)nc2C)ncc1F [Example 202, N-[1-[5-fluoro-2-[[1-(2-methoxyethyl)-3-methyl-pyrazol-4-yl]amino]pyrimidin-4-yl]-3-methyl-indol-5-yl]prop-2-enamide]	0.1 to 100	0.1 to 100	0.1 to 100	0.1 to 100
C=CC(=O)Nc1ccc2c(c1)c(C)cn2-c1nc(Nc2cccnc2F)ncc1F [Example 157, N-[1-[5-fluoro-2-[(2-fluoro-3-pyridyl)amino]pyrimidin-4-yl]-3-methyl-indol-5-yl]prop-2-enamide]	250 to 1000	0.1 to 100	0.1 to 100	0.1 to 100
C=CC(=O)Nc1ccc2c(c1)c(C)cn2-c1nc(Nc2ccc(CN3CCOCC3)c(C)c2)ncc1Cl [Example 66, N-[1-[5-chloro-2-[3-methyl-4-(morpholinomethyl)anilino]pyrimidin-4-yl]-3-methyl-indol-5-yl]prop-2-enamide]	0.1 to 100	0.1 to 100	0.1 to 100	0.1 to 100
C=CC(=O)Nc1ccc2c(c1)c(C)cn2-c1nc(Nc2ccn(CC)n2)ncc1C [Example 93, N-[1-[2-[(1-ethylpyrazol-3-yl)amino]-5-methyl-pyrimidin-4-yl]-3-methylindol-5-yl]prop-2-enamide]	0.1 to 100	0.1 to 100	0.1 to 100	0.1 to 100
C=CC(=O)Nc1cnc2c(c1)c(C)cn2-c1nc(Nc2ccn(CC)n2)ncc1C [Example 114, N-[1-[2-[(1-ethylpyrazol-3-yl)amino]-5-methyl-pyrimidin-4-yl]-3-methyl-pyrrolo[2,3-b]pyridin-5-yl]prop-2-enamide]	0.1 to 100	0.1 to 100	0.1 to 100	0.1 to 100
C=CC(=O)Nc1ccc2c(c1)c(C)nn2-c1ccnc(Nc2ccnn2C)n1 [Example 87, N-[3-methyl-1-[2-[(2-methylpyrazol-3-yl)amino]pyrimidin-4-yl]indazol-5-yl]prop-2-enamide]	> 1000	> 1000	> 1000	> 1000
CC#CC(=O)Nc1ccc2c(c1)c(C)cn2-c1nc(Nc2cnn(CCO)c2)ncc1C [Example 140, N-[1-[2-[[1-(2-hydroxyethyl)pyrazol-4-yl]amino]-5-methyl-pyrimidin-4-yl]-3-methyl-indol-5-yl]but-2-ynamide]	100 to 250	0.1 to 100	0.1 to 100	0.1 to 100
C=CC(=O)Nc1ccc2c(ccn2-c2nc(Nc3cnn(C)c3)ncc2Cl)c1C [Example 18, N-[1-[5-chloro-2-[(1-methylpyrazol-4-yl)amino]pyrimidin-4-yl]-4-methyl-indol-5-yl]prop-2-enamide]	100 to 250	100 to 250	100 to 250	0.1 to 100
